# Measurements from patent US11912701B2, “Protein kinase inhibitors for promoting liver regeneration or reducing or preventing hepatocyte death” (HEPAREGENIX GMBH, priority 2018, dated 2024).
# Tests used:
# [1] = biological target: T1, BRaf (Homo sapiens, UniProt P15056); assay: KINOMEscan competition binding assay, BRaf; conditions: ratio PoC (off-target)/PoC (MKK4)
# T1 construct: purchased ProQinase GmbH, Freiburg, Germany (33PanQinase Assay Service)
# In short: (§1)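 DNA-tagged kinases expressed in HEK-293 cells compete between immobilized ligand on blocked beads and test compound at 100 nM; kinase retained on beads quantified by qPCR of the tag.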
# [2] = biological target: T2, MKK4 (Homo sapiens, UniProt P45985); assay: KINOMEscan competition binding assay, MKK4; conditions: residual percent of control binding (PoC) at 100 nM
# T2 construct: S84/D399; host or cells: HEK-293
# T2 sequence (P45985 84-399): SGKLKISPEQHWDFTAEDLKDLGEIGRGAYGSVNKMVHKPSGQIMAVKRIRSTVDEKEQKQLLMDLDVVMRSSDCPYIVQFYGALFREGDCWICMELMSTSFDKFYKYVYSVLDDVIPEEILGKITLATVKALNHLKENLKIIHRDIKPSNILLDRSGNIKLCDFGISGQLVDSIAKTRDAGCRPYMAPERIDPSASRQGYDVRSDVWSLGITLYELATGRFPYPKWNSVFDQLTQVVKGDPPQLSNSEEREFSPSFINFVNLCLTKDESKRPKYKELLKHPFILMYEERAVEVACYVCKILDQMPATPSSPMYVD
# In short: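 KINOMEscan competition of compound versus immobilized ligand for DNA-tagged MKK4 expressed in HEK-293 cells. Bound kinase was quantified by qPCR after elution.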
# [3] = biological target: T3, MKK4 (Homo sapiens, UniProt P45985); assay: 33PanQinase enzyme assay, MKK4; type: biochemical; conditions: assay 'IC50'; read-out: Potency MKK4 (IC50)
# T3 construct: purchased ProQinase GmbH, Freiburg, Germany (33PanQinase Assay Service)
# T3 sequence (P45985 1-399): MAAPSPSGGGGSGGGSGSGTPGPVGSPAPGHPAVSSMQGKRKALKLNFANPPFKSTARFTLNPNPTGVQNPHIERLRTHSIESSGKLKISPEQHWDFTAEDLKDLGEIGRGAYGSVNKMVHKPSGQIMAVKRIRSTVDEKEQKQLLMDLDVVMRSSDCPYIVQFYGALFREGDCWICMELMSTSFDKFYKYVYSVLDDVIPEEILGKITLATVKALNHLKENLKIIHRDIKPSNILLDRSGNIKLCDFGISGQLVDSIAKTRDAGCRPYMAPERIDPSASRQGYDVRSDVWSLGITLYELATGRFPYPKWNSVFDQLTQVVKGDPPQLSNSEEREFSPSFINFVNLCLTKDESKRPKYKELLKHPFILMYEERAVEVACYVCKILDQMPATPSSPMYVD
# In short: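 Radiometric 33PanQinase assay: kinase, substrate, ATP and compound in standard buffer, 60 min at 30 °C; 33Pi incorporation read by scintillation counting.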
# [4] = biological target: T4, JNK1 (Homo sapiens, UniProt P45983); assay: 33PanQinase enzyme assay, JNK1; type: biochemical; set-up: purchased ProQinase GmbH, Freiburg, Germany (33PanQinase Assay Service); conditions: ratio IC50(JNK1)/IC50(MKK4)
# In short: (§2)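 Radiometric kinase reactions with ATP, test compound in DMSO and enzyme/substrate mix were incubated 60 min at 30 °C, stopped with 2% H3PO4 and washed; incorporated 33Pi was counted by scintillation. Single-concentration data are given as % residual activity; IC50 values come from least-squares curve fits.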
# Target sequence in this assay (P45983 whole entry): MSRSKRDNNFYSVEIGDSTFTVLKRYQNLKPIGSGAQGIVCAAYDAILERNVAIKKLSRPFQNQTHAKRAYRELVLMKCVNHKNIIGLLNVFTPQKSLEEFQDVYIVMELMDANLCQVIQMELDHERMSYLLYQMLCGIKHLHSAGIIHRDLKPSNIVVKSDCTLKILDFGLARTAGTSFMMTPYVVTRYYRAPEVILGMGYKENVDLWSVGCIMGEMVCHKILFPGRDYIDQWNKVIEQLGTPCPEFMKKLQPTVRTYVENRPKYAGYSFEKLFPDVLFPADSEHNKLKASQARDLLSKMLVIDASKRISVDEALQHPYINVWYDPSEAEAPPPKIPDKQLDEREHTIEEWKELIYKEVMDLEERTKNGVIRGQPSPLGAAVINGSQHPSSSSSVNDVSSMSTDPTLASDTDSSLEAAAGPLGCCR
# [5] = biological target: T1, BRaf; assay: 33PanQinase enzyme assay, BRaf; type: biochemical; conditions: ratio IC50(BRaf)/IC50(MKK4)
# In short: as §2
# [6] = biological target: T4, JNK1; assay: KINOMEscan competition binding assay, JNK1; set-up: M1/Q384; host or cells: HEK-293; conditions: ratio PoC (off-target)/PoC (MKK4)
# In short: as §1
# Target sequence in this assay (P45983 1-384 isoform P45983-2): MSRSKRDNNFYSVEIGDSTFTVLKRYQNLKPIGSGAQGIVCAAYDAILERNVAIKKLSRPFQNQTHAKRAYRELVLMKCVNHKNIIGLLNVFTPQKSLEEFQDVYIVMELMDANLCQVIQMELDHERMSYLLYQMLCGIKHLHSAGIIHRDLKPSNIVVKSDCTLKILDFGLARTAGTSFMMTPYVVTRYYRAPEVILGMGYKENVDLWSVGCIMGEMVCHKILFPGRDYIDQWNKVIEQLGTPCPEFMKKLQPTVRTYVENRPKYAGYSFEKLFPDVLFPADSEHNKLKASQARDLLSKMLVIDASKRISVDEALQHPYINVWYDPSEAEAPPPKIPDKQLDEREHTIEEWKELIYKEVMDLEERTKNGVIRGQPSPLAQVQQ
# [7] = biological target: T5, MKK7 (Homo sapiens, UniProt O14733); assay: 33PanQinase enzyme assay, MKK7; type: biochemical; set-up: purchased ProQinase GmbH, Freiburg, Germany (33PanQinase Assay Service); conditions: ratio IC50(MKK7)/IC50(MKK4)
# T5 sequence (O14733 1-419): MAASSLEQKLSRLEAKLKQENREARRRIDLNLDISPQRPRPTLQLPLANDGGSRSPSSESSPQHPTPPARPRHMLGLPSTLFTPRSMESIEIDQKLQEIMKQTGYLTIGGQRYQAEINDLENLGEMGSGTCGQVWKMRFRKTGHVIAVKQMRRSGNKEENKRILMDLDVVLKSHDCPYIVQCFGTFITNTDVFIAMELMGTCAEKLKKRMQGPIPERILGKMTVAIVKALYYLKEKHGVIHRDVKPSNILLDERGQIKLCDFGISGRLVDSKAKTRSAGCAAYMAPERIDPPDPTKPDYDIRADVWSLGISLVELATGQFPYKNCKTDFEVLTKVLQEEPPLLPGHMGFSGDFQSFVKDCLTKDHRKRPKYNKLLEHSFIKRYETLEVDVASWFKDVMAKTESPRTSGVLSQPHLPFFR
# In short: as §2
# [8] = biological target: T5, MKK7; assay: KINOMEscan competition binding assay, MKK7; set-up: M1/R419; host or cells: HEK-293; conditions: ratio PoC (off-target)/PoC (MKK4)
# In short: as §1
# T1 sequence (P15056 whole entry, species assumed): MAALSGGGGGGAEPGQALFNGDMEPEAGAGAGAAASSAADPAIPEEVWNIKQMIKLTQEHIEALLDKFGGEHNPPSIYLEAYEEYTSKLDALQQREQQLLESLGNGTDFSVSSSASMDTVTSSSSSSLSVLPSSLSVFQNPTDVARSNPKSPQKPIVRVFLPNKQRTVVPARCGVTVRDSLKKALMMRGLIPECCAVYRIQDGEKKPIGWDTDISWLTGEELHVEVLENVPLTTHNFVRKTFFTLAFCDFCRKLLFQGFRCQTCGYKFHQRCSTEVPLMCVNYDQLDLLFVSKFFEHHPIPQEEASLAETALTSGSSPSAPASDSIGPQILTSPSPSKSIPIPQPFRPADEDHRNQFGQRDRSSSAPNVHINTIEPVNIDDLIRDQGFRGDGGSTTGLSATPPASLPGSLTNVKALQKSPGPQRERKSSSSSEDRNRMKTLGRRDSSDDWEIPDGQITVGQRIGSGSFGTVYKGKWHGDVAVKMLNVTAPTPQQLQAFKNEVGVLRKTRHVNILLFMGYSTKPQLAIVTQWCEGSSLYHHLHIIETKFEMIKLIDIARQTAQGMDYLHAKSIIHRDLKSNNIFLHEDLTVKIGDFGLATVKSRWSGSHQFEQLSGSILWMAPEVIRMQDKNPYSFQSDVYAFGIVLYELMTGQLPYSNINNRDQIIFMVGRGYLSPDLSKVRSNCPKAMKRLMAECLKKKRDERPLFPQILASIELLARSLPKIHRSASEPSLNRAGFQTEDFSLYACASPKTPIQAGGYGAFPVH
Compound,selectivity based on % Ctrl @100 nM vs. Braf [1],MKK4 [% Ctrl @ 100 nM [2],IC50 [3] [nM],"Selectivity JNK1, IC50(off-target)/IC50(MKK4) [4]","Selectivity Braf, IC50(off-target)/IC50(MKK4) [5]",selectivity based on % Ctrl @100 nM vs. JNK1 [6],"Selectivity IVIKK7, IC50(off-target)/IC50(MKK4) [7]",selectivity based on % Ctrl @100 nM vs. MKK7 [8]
"O=C(c1ccc(F)c(NS(=O)(=O)CCC(F)(F)F)c1F)c1c[nH]c2ncc(-c3cnc(N4CCC4)nc3)cc12 [Example 180, N-(3(5-(2-(azetidin-1-yl)pyrimidin-5-yl)-1H-pyrrolo[2,3-b]pyridine-3-carbonyl)-2,6-difluorophenyl)-3,3,3-trifluoropropane-1-sulfonamide]",+++ (Ratio > 100),+++ (PoC < 1),< 100,+++ (IC50(off-target)/IC50(MKK4) > 100),+++ (IC50(off-target)/IC50(MKK4) > 100),+++ (Ratio > 100),+++ (IC50(off-target)/IC50(MKK4) > 100),+++ (Ratio > 100)
"CCCS(=O)(=O)Nc1ccc(F)c(C(=O)c2c[nH]c3ncc(-c4cccc(OC)c4)cc23)c1F [Example 103, N-(2,4-difluoro-3-(5-(3-methoxyphenyl)-1H-pyrrolo[2,3-b]pyridine-3-carbonyl)phenyl)propane-1-sulfonamide]",◯ (3 ≥ Ratio),+ (3 ≤ PoC < 30),100 to 1000,+ (10 ≥ IC50(off-target)/IC50(MKK4) > 3),◯ (3 ≥ IC50(off-target)/IC50(MKK4)),++ (100 ≥ ratio > 10),+++ (IC50(off-target)/IC50(MKK4) > 100),++ (100 ≥ ratio > 10)
"Cc1cc(F)ccc1-c1cnc2[nH]cc(C(=O)c3cccc(NS(=O)(=O)Cc4ccccc4)c3F)c2c1 [Example 126, N-(2-fluoro-3-(5-(4-fluoro-2-methylphenyl)-1H-pyrrolo[2,3-b]pyridine-3-carbonyl)phenyl)-1-phenylmethanesulfonamide]",++ (100 ≥ ratio > 10),+ (3 ≤ PoC < 30),100 to 1000,+ (10 ≥ IC50(off-target)/IC50(MKK4) > 3),+++ (IC50(off-target)/IC50(MKK4) > 100),++ (100 ≥ ratio > 10),+++ (IC50(off-target)/IC50(MKK4) > 100),++ (100 ≥ ratio > 10)
CCCS(=O)(=O)Nc1ccc(F)c(C(=O)c2c[nH]c3ncc(-c4cccnn4)cc23)c1F [Example 48],◯ (3 ≥ Ratio),+ (3 ≤ PoC < 30),1000 to 10000,◯ (3 ≥ IC50(off-target)/IC50(MKK4)),◯ (3 ≥ IC50(off-target)/IC50(MKK4)),++ (100 ≥ ratio > 10),++ (100 ≥ IC50(off-target)/IC50(MKK4) > 10),++ (100 ≥ ratio > 10)
"CCCS(=O)(=O)Nc1ccc(F)c(C(=O)c2c[nH]c3ncc(-c4ccc([N+](=O)[O-])cc4)cc23)c1F [Example 107, N-(2,4-difluoro-3-(5-(4-nitrophenyl)-1H-pyrrolo[2,3-b]pyridine-3-carbonyl)phenyl)propane-1-sulfonamide]",+ (10 ≥ ratio > 3),+ (3 ≤ PoC < 30),100 to 1000,+ (10 ≥ IC50(off-target)/IC50(MKK4) > 3),◯ (3 ≥ IC50(off-target)/IC50(MKK4)),++ (100 ≥ ratio > 10),+++ (IC50(off-target)/IC50(MKK4) > 100),++ (100 ≥ ratio > 10)
